Patent US6806370B2, “NK-1 receptor active amine oxide prodrugs” (Hoffmann-La Roche Inc., priority 2000, dated 2004)

Experiments:
Assay type in all cases: in vitro ADME
Settings in all cases: 1 μg/mL, 37° C.
[1] = Conversion of prodrug to drug in plasma (dog)
Description: (§1) The conversion of N-oxide prodrugs to the corresponding parent compounds is due to a reduction mechanism. […] The presence of an oxidant in the work-up solution should help preventing the reduction of the N-oxides.
(§2) Conversion in plasma: 10 μLs of a 100 μg/mL DMSO solution of the pro-drug were added to 1 mL plasma to reach a final concentration of 1 μg/mL. The incubation was performed at 37° C. and 8 aliquots were taken at different time points over 30 min. These aliquots were treated with 3 volumes of cold MeOH containing H2O2 (final concentration 10% v/v) and centrifuged at 3500 g for 20 min at 10° C. The supernatant was directly used to determine the drug levels by LC-MS-MS (HPLC chromatography on reversed phase column X-Terra MS C18 […] 2.1×30 mm Waters at 40° C., using a polarity gradient MeOH/Form.Ac.
(§3) 1% 20/80/MeOH; run time; 3.0 min; inj. Vol.: 10 μL; Flow: […] and MS/MS detection on a PE Sciex API-2000 MS/MS spectrometer; ion source: Turbospray; ionisation mode: ESP+).
(§4) Sample stability (plasma and blood): The final matrix were first prepared (plasma or blood treated with 3 volumes of cold MeOH containing H2O2—10% v/v—and centrifuged at 3500 g for 20 min at 10° C.) and then incubated at 37° C. into two tubes; the pro-drug or the drug were then incubated and finally their concentration determined by LC-MS-MS as described above.

[2] = Conversion of prodrug to drug in plasma (human)
Description: as §1, §2, §3, §4

[3] = Conversion of prodrug to drug in plasma (rat)
Description: as §1, §2, §3, §4

t½ conversion prodrug to drug, Dog plasma [1] [h]	t½ conversion prodrug to drug, Human plasma [2] [h]	t½ conversion prodrug to drug, Rat plasma [3] [h]	SMILES
18	12	5	CN(C(=O)C(C)(C)c1cc(C(F)(F)F)cc(C(F)(F)F)c1)c1cnc([N+]2([O-])CCOCC2)cc1-c1ccccc1Cl [Example 2, 2-(3,5-Bis-trifluoromethyl-phenyl)-N-[4-(2-chloro-phenyl)-6-(4-oxy-morpholin-4-yl)-pyridin-3-yl]-N-methyl-isobutyramide]
16	6	2	Cc1ccccc1-c1cc([N+]2([O-])CCOCC2)ncc1C(=O)N(C)Cc1cc(C(F)(F)F)cc(C(F)(F)F)c1.O [Example 16, N-(3,5-Bis-trifluoromethyl-benzyl)-N-methyl-6-(4-oxy-morpholin-4-yl)-4-o-tolyl-nicotinamide monohydrate]

SMILES	t½ conversion prodrug to drug, Dog plasma [1] [h]	t½ conversion prodrug to drug, Human plasma [2] [h]	t½ conversion prodrug to drug, Rat plasma [3] [h]
Cc1ccccc1-c1cc([N+]2([O-])CCOCC2)ncc1N(C)C(=O)C(C)(C)c1cc(C(F)(F)F)cc(C(F)(F)F)c1 [Example 1, 2-(3,5-Bis-trifluoromethyl-phenyl)-N-methyl-N-[6-(4-oxy-morpholin-4-yl)-4-o-tolyl-pyridin-3-yl]-isobutyramide]	18	8	4
